This test relates to CD2F1 mice, P388/ADR leukemia ip, median survival T/C. The test can be described thus: NCI In Vivo Anticancer Drug Screen. Data for tumor model P388 Leukemia resistant to Adriamycin; NSC 123127, Developed at Scr 08 (intraperitoneal) in CD2F1 (CDF1) mice. As to conditions: endpoint: median survival time, higher = longer survival. On the procedure:
The antitumor activity of compounds was measured in mice bearing transplantable tumors. Survival or tumor size were measured and the results are expressed as the measurement made in the treated group (T) divided by the measurement made in the vehicle treated control group (C). The tumor model used in this assay is P388 Leukemia resistant to Adriamycin; NSC 123127, Developed at Scr 08 (intraperitoneal) in CD2F1 (CDF1) mice

Setting [1] is: dose: 67.0 mg/kg/injection, schedule: Q01DX009 (ip), vehicle: saline.
[2] abbreviates: dose: 150.0 mg/kg/injection, schedule: Q01DX009 (ip), vehicle: saline.

SMILES strings stand for the structures. Values joined by “and” are separate entries in the source; they are usually repeats but may differ in a detail not shown here. Equal entries are not always repeated. Toxic doses and inconclusive results are not listed.

For `Cc1c2ccncc2c(C)c2c1[nH]c1ccccc12`, the T/C is 115 % of control (dose: 90.0 mg/kg/injection, schedule: Q04DX002 (ip), vehicle: saline with Tween-80); 156 % of control (dose: 134.0 mg/kg/injection, schedule: Q04DX002 (ip), vehicle: saline with Tween-80); 168 % of control (dose: 200.0 mg/kg/injection, schedule: Q04DX002 (ip), vehicle: saline with Tween-80); 153 % of control (dose: 300.0 mg/kg/injection, schedule: Q04DX002 (ip), vehicle: saline with Tween-80).
Regarding `CO[C@@]12[C@@H]3N[C@@H]3CN1C1=C(C(=O)C(N3CCCC3)=C(C)C1=O)[C@@H]2COC(N)=O`, the T/C (dose: 3.75 mg/kg/injection, schedule: Q01DX005 (ip), vehicle: saline with Tween-80) is 122 % of control; the T/C (dose: 10.4 mg/kg/injection, schedule: Q01DX005 (ip), vehicle: saline with Tween-80) was 122 % of control; the T/C (dose: 12.5 mg/kg/injection, schedule: Q01DX005 (ip), vehicle: saline with Tween-80) is 117 % of control and 120 % of control; the T/C (dose: 17.4 mg/kg/injection, schedule: Q01DX005 (ip), vehicle: saline with Tween-80) was 113 % of control.
For the molecule `CCOc1ccc(-c2nc3ccc(-c4nc5ccc(N6CCN(C)CC6)cc5[nH]4)cc3[nH]2)cc1`, the T/C is, setting by setting: (dose: 1.56 mg/kg/injection, schedule: Q01DX005 (ip), vehicle: water) 109 % of control; (dose: 3.12 mg/kg/injection, schedule: Q01DX005 (ip), vehicle: water) 106 % of control; (dose: 6.25 mg/kg/injection, schedule: Q01DX005 (ip), vehicle: water) 107 % of control; (dose: 12.5 mg/kg/injection, schedule: Q01DX005 (ip), vehicle: water) 91 % of control.
Take `O=C(O)Cc1cccc2c(=O)cc(-c3ccccc3)oc12`: the T/C (dose: 24.12 mg/kg/injection, schedule: Q01DX005 (ip), vehicle: saline) was 102 % of control; the T/C (dose: 30.0 mg/kg/injection, schedule: Q01DX009 (ip), vehicle: saline) is 114 % of control; the T/C (dose: 30.0 mg/kg/injection, schedule: Q01DX009 (ip), vehicle: sodium bicarbonate) is 124 % of control; the T/C (dose: 40.2 mg/kg/injection, schedule: Q01DX005 (ip), vehicle: saline) is 118 % of control; the T/C (dose: 44.0 mg/kg/injection, schedule: Q01DX009 (ip), vehicle: sodium bicarbonate) was 167 % of control; the T/C (dose: 60.0 mg/kg/injection, schedule: Q04DX002 (ip), vehicle: sodium bicarbonate) is 118 % of control. Also, the T/C is, setting by setting: under setting [1], 187 % of control; (dose: 67.0 mg/kg/injection, schedule: Q01DX009 (ip), vehicle: sodium bicarbonate) 187 % of control and 237 % of control and 245 % of control; (dose: 90.0 mg/kg/injection, schedule: Q04DX002 (ip), vehicle: sodium bicarbonate) 118 % of control; (dose: 100.0 mg/kg/injection, schedule: Q01DX009 (ip), vehicle: sodium bicarbonate) 207 % of control and 240 % of control and 291 % of control; (dose: 111.67 mg/kg/injection, schedule: Q01DX005 (ip), vehicle: saline) 161 % of control; (dose: 134.0 mg/kg/injection, schedule: Q04DX002 (ip), vehicle: sodium bicarbonate) 112 % of control. Moreover, the T/C by setting is: under setting [2], 104 % of control; (dose: 150.0 mg/kg/injection, schedule: Q01DX009 (ip), vehicle: sodium bicarbonate) 233 % of control and 260 % of control and 124 % of control; (dose: 175.0 mg/kg/injection, schedule: Q01DX009 (ip), vehicle: sodium bicarbonate) 103 % of control; (dose: 186.12 mg/kg/injection, schedule: Q01DX005 (ip), vehicle: saline) 164 % of control.
Turning to `CC1(C)N=C(N)N=C(N)N1c1ccc(CCCCc2ccc(S(=O)(=O)F)cc2Cl)c(Cl)c1`, the T/C was 87 % of control (dose: 18.0 mg/kg/injection, schedule: Q01DX009 (ip), vehicle: saline with Tween-80); 89 % of control and 101 % of control (dose: 27.0 mg/kg/injection, schedule: Q01DX009 (ip), vehicle: saline with Tween-80); 88 % of control and 102 % of control (dose: 40.0 mg/kg/injection, schedule: Q01DX009 (ip), vehicle: saline with Tween-80); 112 % of control (dose: 60.0 mg/kg/injection, schedule: Q01DX009 (ip), vehicle: saline with Tween-80); 91 % of control and 110 % of control (dose: 90.0 mg/kg/injection, schedule: Q01DX009 (ip), vehicle: saline with Tween-80); 115 % of control (dose: 110.0 mg/kg/injection, schedule: Q01DX009 (ip), vehicle: saline with Tween-80).
On to `C[C@H](N)C(=O)N[C@@H]1[C@H]2C(=C(O)C[C@@H](O)[C@@H]2O)C(=O)O[C@@H]1C`, for which the T/C runs as follows: (dose: 150.0 mg/kg/injection, schedule: Q01DX005 (ip), vehicle: saline) 100 % of control and 105 % of control; (dose: 300.0 mg/kg/injection, schedule: Q01DX005 (ip), vehicle: saline) 100 % of control and 104 % of control; (dose: 600.0 mg/kg/injection, schedule: Q01DX005 (ip), vehicle: saline) 98 % of control and 105 % of control; (dose: 1200.0 mg/kg/injection, schedule: Q01DX005 (ip), vehicle: saline) 97 % of control and 103 % of control.
With `CO[C@H](/C(C)=C/C=C/C(C)=C/c1coc(C)n1)[C@H](C)[C@H]1C[C@@H](O)[C@@]2(C)O[C@H]2/C=C/[C@@H](C)[C@@H]2C[C@@H](CC(=O)O2)C[C@H]2O[C@@H]2C(=O)O1`, the T/C is 105 % of control (dose: 0.04 mg/kg/injection, schedule: Q01DX005 (ip), vehicle: Klucel (hydroxypropylcellulose) (HPC)); 109 % of control and 113 % of control (dose: 0.06 mg/kg/injection, schedule: Q01DX005 (ip), vehicle: Klucel (hydroxypropylcellulose) (HPC)); 114 % of control (dose: 0.08 mg/kg/injection, schedule: Q01DX005 (ip), vehicle: Klucel (hydroxypropylcellulose) (HPC)); 112 % of control (dose: 0.09 mg/kg/injection, schedule: Q01DX005 (ip), vehicle: Klucel (hydroxypropylcellulose) (HPC)); 117 % of control (dose: 0.1 mg/kg/injection, schedule: Q01DX005 (ip), vehicle: Klucel (hydroxypropylcellulose) (HPC)); 97 % of control (dose: 0.12 mg/kg/injection, schedule: Q01DX005 (ip), vehicle: Klucel (hydroxypropylcellulose) (HPC)). Further, the T/C is, setting by setting: (dose: 0.13 mg/kg/injection, schedule: Q01DX005 (ip), vehicle: Klucel (hydroxypropylcellulose) (HPC)) 109 % of control; (dose: 0.14 mg/kg/injection, schedule: Q01DX005 (ip), vehicle: Klucel (hydroxypropylcellulose) (HPC)) 96 % of control; (dose: 0.16 mg/kg/injection, schedule: Q01DX005 (ip), vehicle: Klucel (hydroxypropylcellulose) (HPC)) 107 % of control; (dose: 0.2 mg/kg/injection, schedule: Q01DX005 (ip), vehicle: Klucel (hydroxypropylcellulose) (HPC)) 102 % of control.
As to `O=C1C=C(N2CC2)C(=O)C(N2CC2)=C1N1CC1`, the T/C reads like this: (dose: 0.02 mg/kg/injection, schedule: Q01DX005 (ip), vehicle: saline) 180 % of control; (dose: 0.04 mg/kg/injection, schedule: Q01DX005 (ip), vehicle: saline) 176 % of control and 223 % of control; (dose: 0.08 mg/kg/injection, schedule: Q01DX005 (ip), vehicle: saline) 240 % of control and 294 % of control; (dose: 0.16 mg/kg/injection, schedule: Q01DX005 (ip), vehicle: saline) 233 % of control and 294 % of control; (dose: 0.32 mg/kg/injection, schedule: Q01DX005 (ip), vehicle: saline) 87 % of control and 110 % of control.
`CN=C(NC)c1ccc(NC(=O)/C=C\c2ccc(/C=C/C(=O)Nc3ccc(C(=NC)NC)cc3)cc2)cc1`: the T/C is, setting by setting: (dose: 1.56 mg/kg/injection, schedule: Q01DX005 (ip), vehicle: Klucel (hydroxypropylcellulose) (HPC)) 107 % of control; (dose: 3.12 mg/kg/injection, schedule: Q01DX005 (ip), vehicle: Klucel (hydroxypropylcellulose) (HPC)) 109 % of control; (dose: 6.25 mg/kg/injection, schedule: Q01DX005 (ip), vehicle: Klucel (hydroxypropylcellulose) (HPC)) 116 % of control.
Take `CN1CCN(c2ccc3nc(-c4ccc5nc(-c6ccc(O)cc6)[nH]c5c4)[nH]c3c2)CC1`: the T/C runs as follows: (dose: 44.0 mg/kg/injection, schedule: Q01DX009 (ip), vehicle: saline) 118 % of control; under setting [1], 109 % of control; (dose: 100.0 mg/kg/injection, schedule: Q01DX009 (ip), vehicle: saline) 105 % of control; under setting [2], 103 % of control.
As for `O=C(O)c1cc(C(=O)O)c(C(=O)O)cc1C(=O)O.[NH2-].[NH2-].[NH2-].[NH2-].[Pt+2].[Pt+2]`, the T/C runs as follows: (dose: 3.12 mg/kg/injection, schedule: Q01DX005 (ip), vehicle: saline) 123 % of control; (dose: 25.0 mg/kg/injection, schedule: Q01DX005 (ip), vehicle: saline) 167 % of control; (dose: 25.0 mg/kg/injection, schedule: Q01DX005 (ip), vehicle: suspension in saline) 150 % of control; (dose: 41.67 mg/kg/injection, schedule: Q01DX005 (ip), vehicle: suspension in saline) 178 % of control.

Values taken from PubChem BioAssay AID322 (DTP/NCI, 2004).
